Reference: patent publication EP1077967B1, “BIPHENYL OXO-ACETIC ACIDS USEFUL IN THE TREATMENT OF INSULIN RESISTANCE AND HYPERGLYCEMIA” (Wyeth, priority 1998, dated 1999)
Where a name gives a salt, the structure may show the parent alone.

Target: T1, Human recombinant PTP1B (Homo sapiens, UniProt P18031)
T1 construct: made in house
T1 sequence (P18031 1-435): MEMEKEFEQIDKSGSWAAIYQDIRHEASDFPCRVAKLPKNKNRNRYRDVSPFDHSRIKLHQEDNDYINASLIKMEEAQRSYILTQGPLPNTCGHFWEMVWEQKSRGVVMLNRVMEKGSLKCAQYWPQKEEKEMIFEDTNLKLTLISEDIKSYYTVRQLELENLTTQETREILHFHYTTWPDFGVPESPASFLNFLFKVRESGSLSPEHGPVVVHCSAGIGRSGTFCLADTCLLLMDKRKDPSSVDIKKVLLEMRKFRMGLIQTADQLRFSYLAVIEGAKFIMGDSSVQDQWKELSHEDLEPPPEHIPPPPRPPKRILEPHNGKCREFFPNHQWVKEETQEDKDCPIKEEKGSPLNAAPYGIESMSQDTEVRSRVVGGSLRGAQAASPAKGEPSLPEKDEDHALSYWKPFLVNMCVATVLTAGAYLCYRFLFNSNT
Test: Inhibition of tri-phosphorylated insulin receptor dodecaphosphopeptide dephosphorylation by hPTP1B (malachite green)
Format: biochemical
Conditions: for IC50: recombinant PTP1B, dodecaphosphopeptide substrate

| Compound | inhibition at 2.5 µM (compound at 2.5 uM, read-out: change of PTP1B activity (percent of phosphatase control)) | IC50 |
| --- | --- | --- |
| COC(=O)[C@H](Cc1ccccc1)Oc1ccc(-c2ccc(-c3c(Cc4ccccc4)oc4ccccc34)cc2)cc1 [Example 23, (2S)-2-[4'-(2-Benzyl-benzofuran-3-yl)-biphenyl-4-yloxy]-3-phenyl-propionic acid methyl ester] | 36% | – |
| O=C(O)C(Cc1ccccc1)Oc1ccc(-c2ccc(-c3c(Cc4nccs4)sc4ccccc34)cc2)cc1 (centres unmarked) [Example 30, 3-Phenyl-2-[4'-(2-thiazole-2-ylmethyl-benzo[b]thiophene-3-yl)-biphenyl-4-yloxy]-propionic acid] | – | 1160 nM |
| O=C(O)[C@H](Cc1ccccc1)Oc1ccc(-c2ccc(-c3c(Cc4ccccc4)oc4cccnc34)cc2)cc1 [Example 31, (2S)-2-[4'-(2-Benzyl-furo[2,3]pyridin-3-yl)-biphenyl-4-yloxy]-3-phenyl-propionic acid] | – | 590 nM |
| O=C(O)[C@@H](Cc1ccccc1)Oc1ccc(-c2ccc(-c3c(Cc4ccccn4)sc4ccccc34)cc2)cc1 [Example 32, (2R)-3-phenyl-2-[4'-(2-pyridin-2-ylmethyl-benzo[b]thiophene-3-yl)-biphenyl-4-yloxy]-propionic acid sodium salt] | – | 1510 nM |
| O=C(O)[C@@H](Cc1ccccc1)Oc1ccc(-c2ccc(-c3c(Cc4ccccn4)sc4ccccc34)cc2)cc1 [Example 33, (2R)-3-phenyl-2-[4'-(2-pyridin-2-ylmethyl-benzo[b]thiophene-3-yl)-biphenyl-4-yloxy]-propionic acid] | – | 1550 nM |
| O=C(O)C(Cc1ccccc1)Oc1ccc(-c2ccc(-c3c(Cc4ccccc4)sc4ccccc34)cc2)cc1-c1ccc(Cl)cc1 (centres unmarked) [Example 46, (2R')-2-[4-(2-benzyl-benzo[b]thiophene-3-yl)-4"-chloro-[1,1':3',1"]terphenyl-4'-yloxy]-3-phenyl-propionic acid] | – | 52 nM |

Results, then the compound that gave them:

| inhibition at 2.5 µM (compound at 2.5 uM, read-out: change of PTP1B activity (percent of phosphatase control)) | IC50 | Compound |
| --- | --- | --- |
| – | 1070 nM | Oc1ccc(-c2ccc(-c3c(Cc4ccccc4)sc4ccccc34)cc2)cc1Br [Example 34, 4'-(2-Benzyl-benzo[b]thiophen-3-yl)-3-bromo-biphenyl-4-ol] |
| – | 454 nM | Oc1c(Br)cc(-c2ccc(-c3c(Cc4ccccc4)sc4ccccc34)cc2)cc1Br [Example 35, 4'-(2-Benzyl-benzo[b]thiophen-3-yl)-3,5-dibromo-biphenyl-4-ol] |
| – | 105 nM | O=C(O)COc1c(Br)cc(-c2ccc(-c3c(Cc4ccccc4)sc4ccccc34)cc2)cc1Br [Example 39, [4'-(2-Benzyl-benzo[b]thiophene-3-yl)-3,5-dibromo-biphenyl-4-yloxy]acetic acid] |
| – | 362 nM | O=C(O)COc1ccc(-c2ccc(-c3c(Cc4ccccc4)sc4ccccc34)cc2)cc1Br [Example 40, [4'-(2-Benzyl-benzo[b]thiophene-3-yl)-3-bromo-biphenyl-4-yloxy]-acetic acid] |
| – | 290 nM | O=C(O)[C@H](CCc1ccccc1)Oc1c(Br)cc(-c2ccc(-c3c(Cc4ccccc4)sc4ccccc34)cc2)cc1Br [Example 41, (2S)-2-[4'-(2-Benzyl-benzo[b]-thiophen-3-yl)-3,5-dibromo-biphenyl-4-yloxy]-4-phenyl-butyric acid] |
| – | 44 nM | O=C(O)[C@@H](CCN1C(=O)c2ccccc2C1=O)Oc1c(Br)cc(-c2ccc(-c3c(Cc4ccccc4)sc4ccccc34)cc2)cc1Br [Example 43, (2R)-2-[4'-(2-Benzyl-benzo[b]-thiophen-3-yl)-3,5-dibromo-biphenyl-4-yloxy]-4-(1,3-dioxo-1,3-dihydro-isoindol-2-yl)-butyric acid] |
| – | 54 nM | COC(=O)[C@@H](CCNC(=O)c1ccccc1C(=O)O)Oc1c(Br)cc(-c2ccc(-c3c(Cc4ccccc4)sc4ccccc34)cc2)cc1Br [Example 44, N-{(3R)-3-[4'-(2-benzyl-benzo[b]thiophen-3-yl)-3,5-dibromo-biphenyl-4-yloxy]-3-methoxycarbonyl-propyl]-phthalamic acid] |
| – | 181 nM | O=C(O)c1ccccc1C(=O)NCC[C@@H](Oc1c(Br)cc(-c2ccc(-c3c(Cc4ccccc4)sc4ccccc34)cc2)cc1Br)C(=O)O [Example 45, N-{(3R)-3-[4'-(2-benzyl-benzo[b]thiophen-3-yl)-3,5-dibromo-biphenyl-4-yloxy]-3-carboxy-propyl]-phthalamic acid] |
